# Where “and” joins values, the source holds several entries; their conditions need not be identical. Equal values may be shown once.
# Columns and labels:
# Type in all cases: cell-based
# [1] = Cytotoxicity, live cells by flow cytometry, Jurkat cells; settings: human
# Experimental: (§1) H9, Jurkat and undifferentiated U937 and THP-1 (PMA^−) cells (6 × 10^5 cells/mL) were treated with increasing concentrations of nucleoside analogues (0–200 μM; except CFB, 0–1.6 μM) and incubated at 37 °C in 5% CO2 for 48 h. Medium was then replaced and cells were further incubated for 72 h. Non-dividing U937 and THP-1 (PMA^+) cells (6 × 10^5 cells/mL) were differentiated by addition of 100 nM phorbol-12-myristate-13-acetate (PMA^+) for 48 h and then treated with increasing concentrations of nucleoside analogues as described above. The percentage of live cells was determined by flow cytometry using Live/Dead fixable blue-fluorescent dyes (Invitrogen) and a Fortessa X20 analyser (BD Biosciences). Data were analysed using the FlowJo software suite.
# (§2) The cytotoxic concentration of nucleoside analogue that inhibits cell viability by 50% (CC50) and the effective concentration of nucleoside analogue that inhibits infection of cells by 50% (EC50) were calculated for each independent experiment by non-linear regression using GraphPad Prism v6.00 for Windows (GraphPad Software, San Diego, CA). Non-ambiguous values were subjected to a replicate test to calculate confidence intervals of 95% (95% CI). CC50 and EC50 values were determined for at least two independent experiments for each nucleoside analogue and a selectivity index (SI) also calculated, (SI = CC50/EC50). EC50 values for each replicate were used to perform an unpaired two-tailed t-test to determine significant differences between U937 cells expressing SAMHD1 wt or HD206-7AA mutant and THP-1 cells expressing Vpx or untransduced cells. P values of <0.005 were considered statistically significant.
# [2] = tested on: HIV-1-GFP; assay: microbe, parasite or virus in culture
# Experimental: Cells were then infected with HIV-1-GFP by spinoculation at 800 × g for 90 min in the presence of 1 μg/mL polybrene, and further incubated at 37 °C in 5% CO2 for 72 h. […] Cells were then infected with HIV-1-GFP by spinoculation at 800 × g for 90 min in the presence of 1 μg/mL polybrene, and further incubated at 37 °C in 5% CO2 for 72 h. Non-dividing U937 and THP-1 (PMA^+) cells (6 × 10^5 cells/mL) were differentiated by addition of 100 nM PMA (PMA^+) for 48 h and treated with increasing concentrations of nucleoside analogues as described above. Cells were then infected with HIV-1-GFP in the presence of 1 μg/mL polybrene and further incubated at 37 °C in 5% CO2 for 72 h. The percentage of GFP^+cells was determined by one-colour flow cytometry using a Fortessa X20 analyser (BD Biosciences) and the data analysed using the FlowJo software suite.
# Non-ambiguous values were subjected to a replicate test to calculate confidence intervals of 95% (95% CI). CC50 and EC50 values were determined for at least two independent experiments for each nucleoside analogue and a selectivity index (SI) also calculated, (SI = CC50/EC50). EC50 values for each replicate were used to perform an unpaired two-tailed t-test to determine significant differences between U937 cells expressing SAMHD1 wt or HD206-7AA mutant and THP-1 cells expressing Vpx or untransduced cells. P values of <0.005 were considered statistically significant.
# [3] = Cytotoxicity, live cells by flow cytometry, THP-1 cells (PMA−/PMA+); settings: human
# Experimental: as §1, §2
# [4] = tested on: HIV-1-GFP; assay: Anti-HIV-1 activity in U937 cells transduced with wt SAMHD1 or HD206-7AA mutant
# Experimental: (§3) Antiviral assays were further performed in monocytoid cells transduced with YFP-expressing VLPs containing WT SAMHD1, HD206-7AA or Vpx. Briefly, U937 cells (6 × 10^5 cells/mL) were transduced with WT SAMHD1-YFP or HD206-7AA-YFP VLPs by spinoculation at 800 × g for 90 min in the presence of 1 μg/mL polybrene. Similarly, THP-1 cells (6 × 10^5 cells/mL) were transduced with Vpx-YFP VLPs by spinoculation at 800 × g for 90 min in the presence of 1 μg/mL polybrene. Cells were incubated at 37 °C in 5% CO2 and after 72 h, PMA^+ cells (6 × 10^5 cells/mL) were treated with 100 nM PMA and PMA^− cells (7.5 × 10^4 cells/mL) were left untreated. Cells were then incubated at 37 °C in 5% CO2 for 48 h. Nucleoside analogues were added at increasing concentrations (0–200 μM; except CFB, 0–1.6 μM) and cells were further incubated for 48 h. PMA^− cells were then infected with HIV-1-GFP by spinoculation at 800 × g for 90 min in the presence of 1 μg/mL polybrene, PMA^+ cells were infected with HIV-1-GFP in the presence of 1 μg/mL polybrene only. Cells were incubated for 72 h at 37 °C in 5% CO2 and then analysed by two-colour flow cytometry using a Fortessa X20 analyser (BD Biosciences). Data were analysed using the FlowJo software suite.
# as §2
# [5] = Cytotoxicity, live cells by flow cytometry, U937 cells (PMA−/PMA+); settings: human
# Experimental: as §1, §2
# [6] = tested on: HIV-1-GFP; assay: Anti-HIV-1 activity in THP-1 cells with or without Vpx transduction
# Experimental: as §3, §2
# [7] = Cytotoxicity, live cells by flow cytometry, H9 cells; settings: human
# Experimental: as §1, §2
# [8] = tested on: THP-1 cells; assay: Cytotoxicity, live cells by flow cytometry, THP-1 cells (PMA−/PMA+); settings: human, 48 h
# Experimental: as §1, §2
# [9] = tested on: U937 cells; assay: Cytotoxicity, live cells by flow cytometry, U937 cells (PMA−/PMA+); settings: human, 48 h
# Experimental: as §1, §2
# [10] = Human immunodeficiency virus 1, H9, read-out: EC50 anti-HIV-1, H9 cells
# [11] = Human immunodeficiency virus 1, Jurkat, read-out: EC50 anti-HIV-1, Jurkat cells
# [12] = Human immunodeficiency virus 1, U-937, read-out: EC50 [95% CI], U937 PMA+, HD206/7AA+ population
# [13] = Human immunodeficiency virus 1, U-937, read-out: EC50 [95% CI], U937 PMA+, SAMHD1+ population
# [14] = Human immunodeficiency virus 1, U-937, read-out: EC50 [95% CI], U937 PMA−, HD206/7AA+ population
# [15] = Human immunodeficiency virus 1, U-937, read-out: EC50 [95% CI], U937 PMA−, SAMHD1+ population
# [16] = Human immunodeficiency virus 1, THP-1, read-out: EC50 [95% CI], THP1 PMA+, Vpx+
# [17] = Human immunodeficiency virus 1, THP-1, read-out: EC50 [95% CI], THP1 PMA+, Vpx−
# [18] = Human immunodeficiency virus 1, THP-1, read-out: EC50 [95% CI], THP1 PMA−, Vpx+
# [19] = Human immunodeficiency virus 1, THP-1, read-out: EC50 [95% CI], THP1 PMA−, Vpx−
# [20] = U937 PMA−, HD206/7AA+ population
Compound,"SI, selectivity index CC50/EC50 ([2]; H9 cells)","EC50 [2, 10] [µM]","EC50 [2, 11] [µM]","EC50 [4, 12] [µM]","EC50 [4, 13] [µM]","EC50 [4, 14] [µM]","EC50 [4, 15] [µM]",Fold (EC50 HD206/7AA vs SAMHD1) ([4]; U937 PMA+) [fold],Fold (EC50 HD206/7AA vs SAMHD1) ([4]; U937 PMA−) [fold],"EC50 [6, 16] [µM]","EC50 [6, 17] [µM]","EC50 [6, 18] [µM]","EC50 [6, 19] [µM]",Fold (EC50 Vpx+ vs Vpx−) ([6]; THP1 PMA+) [fold],CC50 at 48 h [1] [µM],CC50 at 48 h [3] [µM],CC50 [8] [µM],CC50 [9] [µM],CC50 at 48 h [5] [µM],CC50 at 48 h [7] [µM],further results
"Cc1nnc(C(=O)NC(C)(C)c2nc(C(=O)NCc3ccc(F)cc3)c(O)c(=O)n2C)o1 [RAL, Raltegravir]",> 100000,0.002,0.004,0.075,0.07,0.012,0.011,1,1,0.037,0.038,0.043,0.035,1,–,–,–,–,–,–,"CC50 at 48 h ([1]; Jurkat cells, read-out: CC50): > 200 µM; EC50 anti-HIV-1 ([2]; H9 cells): nanomolar concentrations; EC50 anti-HIV-1 ([2]; Jurkat cells): nanomolar concentrations; CC50 at 48 h ([3]; THP-1 PMA+, read-out: CC50): > 200 µM; CC50 at 48 h ([3]; THP-1 PMA−, read-out: CC50): > 200 µM; CC50 at 48 h ([5]; U937 PMA+, read-out: CC50): > 200 µM; CC50 at 48 h ([5]; U937 PMA−, read-out: CC50): > 200 µM; Fold (EC50 Vpx+ vs Vpx−) ([6]; THP1 PMA−): 1 fold; CC50 at 48 h ([7]; H9 cells, read-out: CC50): > 200 µM"
"Cc1cn([C@H]2C=C[C@@H](CO)O2)c(=O)[nH]c1=O [d4T, 2′,3′-didehydro-2′,3′-dideoxythymidine]",> 36 and > 30,< 10,< 10,5.82,0.528,2.71,0.801,11,3,52.2,1.49,13.3,4.39,35,> 200,> 200,> 200,> 200,> 200,> 200,"SI, selectivity index CC50/EC50 ([2]; Jurkat cells): > 30; EC50 ([2]; read-out: EC50 anti-HIV-1, H9 cells): 5.57 µM; EC50 ([2]; read-out: EC50 anti-HIV-1, Jurkat cells): 6.56 µM"
"Cc1ccnc2c1NC(=O)c1cccnc1N2C1CC1 [NVP, Nevirapine]",> 1266,0.158,0.486,0.145,0.097,0.124,0.112,1,1,0.235,0.223,0.292,0.244,1,–,–,–,–,–,–,"CC50 at 48 h ([1]; Jurkat cells, read-out: CC50): > 200 µM; EC50 anti-HIV-1 ([2]; H9 cells): nanomolar concentrations; EC50 anti-HIV-1 ([2]; Jurkat cells): nanomolar concentrations; CC50 at 48 h ([3]; PMA-differentiated, non-dividing THP-1 cells (PMA+), THP-1 PMA+, read-out: CC50): > 200 µM; CC50 at 48 h ([3]; undifferentiated THP-1 cells (PMA−), THP-1 PMA−, read-out: CC50): > 200 µM; CC50 at 48 h ([5]; PMA-differentiated, non-dividing U937 cells (PMA+), U937 PMA+, read-out: CC50): > 200 µM; CC50 at 48 h ([5]; undifferentiated U937 cells (PMA−), U937 PMA−, read-out: CC50): > 200 µM; Fold (EC50 Vpx+ vs Vpx−) ([6]; THP1 PMA−): 1 fold; CC50 at 48 h ([7]; H9 cells, read-out: CC50): > 200 µM"
"Nc1nc2c(ncn2COCCO)c(=O)[nH]1 [ACV, Acycloguanosine]",–,> 200,> 200,50.9,0.652,> 200,> 200,78,–,29.6,1.08,> 200,> 200,27,> 200,> 200,> 200,> 200,> 200,> 200,"EC50 [95% CI] [4, 20]: no anti-HIV-1 activity; EC50 [95% CI] ([4]; U937 PMA−, SAMHD1+ population): no anti-HIV-1 activity"
"Nc1nc(O)c2ncn(COC(CO)CO)c2n1 [GCV, 2′-Nor-2′-deoxyguanosine]",–,> 200,> 200,> 200,0.876,> 200,> 200,–,–,> 200,0.632,> 200,> 200,>316,> 200,> 200,> 200,> 200,> 200,> 200,"EC50 [95% CI] [4, 20]: no anti-HIV-1 activity; EC50 [95% CI] ([4]; U937 PMA−, SAMHD1+ population): no anti-HIV-1 activity"
